Assay results taken from BindingDB's records for doi:10.1021/jm9805081 (Warner-Lambert, 1999).

Biological target: T1, Prostaglandin G/H synthase 2 (Homo sapiens, UniProt P35354)
T1 sequence (P35354 whole entry): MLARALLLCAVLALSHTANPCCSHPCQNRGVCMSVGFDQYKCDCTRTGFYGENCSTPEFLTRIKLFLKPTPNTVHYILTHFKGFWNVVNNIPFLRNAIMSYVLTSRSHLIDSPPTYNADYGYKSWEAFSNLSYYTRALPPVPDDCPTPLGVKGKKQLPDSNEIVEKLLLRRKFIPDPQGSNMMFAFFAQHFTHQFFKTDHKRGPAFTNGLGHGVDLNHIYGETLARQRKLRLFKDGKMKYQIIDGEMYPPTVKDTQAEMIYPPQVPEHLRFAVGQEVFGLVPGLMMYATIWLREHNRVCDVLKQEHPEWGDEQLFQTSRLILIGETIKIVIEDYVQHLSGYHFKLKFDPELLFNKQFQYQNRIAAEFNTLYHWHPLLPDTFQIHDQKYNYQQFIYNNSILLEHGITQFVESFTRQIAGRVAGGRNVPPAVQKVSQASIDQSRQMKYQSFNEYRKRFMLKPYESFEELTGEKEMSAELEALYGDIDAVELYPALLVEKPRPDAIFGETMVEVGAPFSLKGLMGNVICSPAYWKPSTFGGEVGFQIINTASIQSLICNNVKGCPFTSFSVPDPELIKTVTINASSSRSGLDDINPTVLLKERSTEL
Test: IC50 value against recombinant human Prostaglandin G/H synthase 2 at 10 uM; not active

IC50: > 10 µM
SMILES: CONC1=NC(=O)C(=Cc2cc(C(C)(C)C)c(O)c(C(C)(C)C)c2)O1 [5-[1-(3,5-Di-tert-butyl-4-hydroxy-phenyl)-meth-(Z)-ylidene]-2-methoxyamino-oxazol-4-one]
